Experimental data reported in patent US20220267352A1, “RAPAMYCIN ANALOGS AND USES THEREOF” (Anakuria Therapeutics, Inc., priority 2021, published 2022).

Legend:
[1] = test system: p-p70 S6 Kinase (Thr389) in MCF-7 cells; assay: AlphaLISA Ultra pS6K1 assay; format: cell-based; conditions: Homo sapiens, 1.5 h; MCF7 cells, 90 min
Outline: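 Phospho-S6K1 (Thr389) quantified by AlphaLISA Ultra read-out (2 h acceptor, then 2 h donor beads) in lysates of MCF-7 cells. Cells were plated 20–24 h before, refed 2 h, exposed to compounds for 90 min at 0.5% final DMSO, and lysates stored at −80 °C.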

[2] = test system: pS6K1 T389 and pAkt S473 in PC3 cells; assay: Western blot based pS6K1 and pAKT assay at 24 and 48 hour timepoints; format: cell-based
Outline: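 PC3 cells (500,000/well) were treated with compound for 24 to 48 h, then lysed in 1% Triton buffer. Equal protein from Bradford-normalized lysates was analysed by Western blot for pS6K1 T389 and pAkt S473 with Li-Cor infrared detection.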

mTORC1 over mTORC2 = mTORC1 over mTORC2 selectivity by comparing pS6K1 and pAKT IC50; format: cell-based; conditions: by comparing pS6K1 and pAKT IC50, 90 min
Outline: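 MCF-7 cells were treated with compounds (0.5% final DMSO) for 90 minutes in one protocol and 2 hours in the other, then lysed. Phospho-signal in lysates was read by bead-based donor/acceptor proximity assay. pS6K1 and pAKT IC50 values were compared to judge mTORC1 over mTORC2 selectivity, at 90 min and at 24 hrs.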

[3] = test system: p-Akt 1/2/3 (Ser473) in MCF-7 cells; assay: AlphaLISA Ultra pAKT assay; format: cell-based; conditions: Homo sapiens, 1.5 h; MCF7 cells, 90 min
Outline: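 MCF-7 cells (16,000˜20,000 per well in 36 μL medium) were seeded in Corning 3701 plates for 20˜24 hour, refreshed with new medium for 90 minutes, then given 12 μL of 4× compound (0.5% final DMSO). Cells were lysed with 2× lysis buffer, and lysate was analyzed by AlphaLISA Ultra pAKT using acceptor and donor beads, read on an EnSpire reader.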

Lmna−/− mice = conditions: short-term treatment; cited from earlier work
human adipocytes = test system: human adipocytes; design: dose or concentration left out as unconfirmed; conditions: therapeutic concentration; cited from earlier work
PC3 cells = conditions: 1 or 24 hour treatment; cited from earlier work

SMILES	IC50 [1] [nM]	mTORC1 selective @ 24 hrs [2]	mTORC1 selective @ 90 min (mTORC1 over mTORC2)	IC50 [3] [nM]	enhanced survival (Lmna−/− mice) [%]	AKT (PKB) Ser473 phosphorylation (human adipocytes)	glucose uptake (human adipocytes)	Akt phosphorylation (S473) (PC3 cells)
COCCO[C@@H]1CC[C@@H](C[C@@H](C)[C@@H]2CC(=O)[C@H](C)/C=C(\C)[C@@H](O)[C@@H](OC)C(=O)[C@H](C)C[C@H](C)/C=C/C=C/C=C(\C)[C@@H](OC[C@H]3COCCO3)C[C@@H]3CC[C@@H](C)[C@@](O)(O3)C(=O)C(=O)N3CCCC[C@H]3C(=O)O2)C[C@H]1OC [I-64, (1R,9S,12S,15R,16E,18R,19R,21R,23S,24E,26E,28E,30S,32S,35R)-30-[[(2R)-1,4-dioxan-2-yl]methoxy]-1,18-dihydroxy-19-methoxy-12-[(1R)-2-[(1S,3R,4R)-3-methoxy-4-(2-methoxyethoxy)cyclohexyl]-1-methyl-ethyl]-15,17,21,23,29,35-hexamethyl-11,36-dioxa-4-azatricyclo[30.3.1.0^4,9]hexatriaconta-16,24,26,28-tetraene-2,3,10,14,20-pentone]	1 to 10	Yes	–	–	–	–	–	–
COCCO[C@@H]1CC[C@@H](C[C@@H](C)[C@@H]2CC(=O)[C@H](C)/C=C(\C)[C@@H](O)[C@@H](OC)C(=O)[C@H](C)C[C@H](C)/C=C/C=C/C=C(\C)[C@@H](OC[C@@H]3COCCO3)C[C@@H]3CC[C@@H](C)[C@@](O)(O3)C(=O)C(=O)N3CCCC[C@H]3C(=O)O2)C[C@H]1OC [I-66, (1R,9S,12S,15R,16E,18R,19R,21R,23S,24E,26E,28E,30S,32S,35R)-30-[[(2S)-1,4-dioxan-2-yl]methoxy]-1,18-dihydroxy-19-methoxy-12-[(1R)-2-[(1S,3R,4R)-3-methoxy-4-(2-methoxyethoxy)cyclohexyl]-1-methyl-ethyl]-15,17,21,23,29,35-hexamethyl-11,36-dioxa-4-azatricyclo[30.3.1.0^4,9]hexatriaconta-16,24,26,28-tetraene-2,3,10,14,20-pentone]	1 to 10	Yes	–	–	–	–	–	–
COCCO[C@@H]1CC[C@@H](C[C@@H](C)[C@@H]2CC(=O)[C@H](C)/C=C(\C)[C@@H](OC)[C@@H](OC)C(=O)[C@H](C)C[C@H](C)/C=C/C=C/C=C(\C)[C@@H](OCCOCCOC3COC3)C[C@@H]3CC[C@@H](C)[C@@](O)(O3)C(=O)C(=O)N3CCCC[C@H]3C(=O)O2)C[C@H]1OC [I-69, (1R,9S,12S,15R,16E,18R,19R,21R,23S,24E,26E,28E,30S,32S,35R)-1-hydroxy-18,19-dimethoxy-12-[(1R)-2-[(1S,3R,4R)-3-methoxy-4-(2-methoxyethoxy)cyclohexyl]-1-methyl-ethyl]-15,17,21,23,29,35-hexamethyl-30-[2-[2-(oxetan-3-yloxy)ethoxy]ethoxy]-11,36-dioxa-4-azatricyclo[30.3.1.0^4,9]hexatriaconta-16,24,26,28-tetraene-2,3,10,14,20-pentone]	≥ 1000	No	–	–	–	–	–	–
COCCO[C@@H]1CC[C@@H](C[C@@H](C)[C@@H]2CC(=O)[C@H](C)/C=C(\C)[C@@H](OC)[C@@H](OC)C(=O)[C@H](C)C[C@H](C)/C=C/C=C/C=C(\C)[C@@H](OCCOC3COC3)C[C@@H]3CC[C@@H](C)[C@@](O)(O3)C(=O)C(=O)N3CCCC[C@H]3C(=O)O2)C[C@H]1OC [I-83, (1R,9S,12S,15R,16E,18R,19R,21R,23S,24E,26E,28E,30S,32S,35R)-1-hydroxy-18,19-dimethoxy-12-[(1R)-2-[(1S,3R,4R)-3-methoxy-4-(2-methoxyethoxy)cyclohexyl]-1-methyl-ethyl]-15,17,21,23,29,35-hexamethyl-30-[2-(oxetan-3-yloxy)ethoxy]-11,36-dioxa-4-azatricyclo[30.3.1.0^4,9]hexatriaconta-16,24,26,28-tetraene-2,3,10,14,20-pentone]	≥ 1000	No	No	≥ 1000	–	–	–	–
CO[C@@H]1C[C@H](C[C@@H](C)[C@@H]2CC(=O)[C@H](C)/C=C(\C)[C@@H](O)[C@@H](OC)C(=O)[C@H](C)C[C@H](C)/C=C/C=C/C=C(\C)[C@@H](OC[C@@H]3COCCO3)C[C@@H]3CC[C@@H](C)[C@@](O)(O3)C(=O)C(=O)N3CCCC[C@H]3C(=O)O2)CC[C@H]1OCCO [I-85, (1R,9S,12S,15R,16E,18R,19R,21R,23S,24E,26E,28E,30S,32S,35R)-30-[[(2S)-1,4-dioxan-2-yl]methoxy]-1,18-dihydroxy-12-[(1R)-2-[(1S,3R,4R)-4-(2-hydroxyethoxy)-3-methoxy-cyclohexyl]-1-methyl-ethyl]-19-methoxy-15,17,21,23,29,35-hexamethyl-11,36-dioxa-4-azatricyclo[30.3.1.04,9]hexatriaconta-16,24,26,28-tetraene-2,3,10,14,20-pentone]	1 to 10	Yes	Yes	≥ 1000	–	–	–	–
CO[C@@H]1/C(C)=C/[C@@H](C)C(=O)C[C@@H]([C@H](C)C[C@@H]2CC[C@@H](O)[C@H](OC)C2)OC(=O)[C@@H]2CCCCN2C(=O)C(=O)[C@]2(O)O[C@@H](CC[C@H]2C)C[C@H](OCCOC2COC2)/C(C)=C/C=C/C=C/[C@@H](C)C[C@@H](C)C(=O)[C@@H]1OC [I-97, (1R,9S,12S,15R,16E,18R,19R,21R,23S,24E,26E,28E,30S,32S,35R)-1-hydroxy-12-[(1R)-2-[(1S,3R,4R)-4-hydroxy-3-methoxy-cyclohexyl]-1-methyl-ethyl]-18,19-dimethoxy-15,17,21,23,29,35-hexamethyl-30-[2-(oxetan-3-yloxy)ethoxy]-11,36-dioxa-4-azatricyclo[30.3.1.0^4,9]hexatriaconta-16,24,26,28-tetraene-2,3,10,14,20-pentone]	≥ 1000	No	No	≥ 1000	–	–	–	–
CO[C@H]1C[C@@H]2CC[C@@H](C)[C@@](O)(O2)C(=O)C(=O)N2CCCC[C@H]2C(=O)O[C@H]([C@H](C)C[C@@H]2CC[C@@H](O)[C@H](OC)C2)CC(=O)[C@H](C)/C=C(\C)[C@@H](O)[C@@H](OC)C(=O)[C@H](C)C[C@H](C)/C=C/C=C/C=C/1C [rapamycin]	–	–	–	–	~50	reduced AKT (PKB) Ser473 phosphorylation	reduced glucose uptake	strongly decreased Akt phosphorylation
